Assay results: PubChem BioAssay AID1863 (Southern Research Specialized Biocontainment Screening …, 2009)

System: S. Typhimurium PhoP-regulated promoter GFP reporter, 4 h
Assay: PhoP-dependent GFP reporter repression – Salmonella Typhimurium, primary screen (AID 1863)

Row | Structure (SMILES) | IC50 [µM]
1 | Cc1ccccc1OCc1n(CC(=O)OC2CC(C)CCC2C(C)C)c2ccccc2[n+]1C (centres undefined) | 71
2 | Cc1sc2ncnc(N/N=C/c3ccccc3O)c2c1C | 82.2
3 | O=C(N/N=C/c1cc([N+](=O)[O-])ccc1O)c1ccncc1 | 58.4
4 | O=C(CSc1ccccn1)N/N=C/c1cc([N+](=O)[O-])ccc1O | 58
5 | CCOc1ccc(Nc2c3ccccc3nc3ccccc23)cc1 | 77.7
6 | Cc1ccc(Cn2c(=N)n(CC(=O)c3ccc([N+](=O)[O-])cc3)c3ccccc32)cc1 | 143
7 | COc1cc(/C=C/[N+](=O)[O-])ccc1O | 82.5
8 | c1ccc2c(c1)Sc1ccccc1N2CC1CN2CCC1CC2 (centres undefined) | 133
9 | CCOC(=O)C1=Nc2ccccc2C1=[N+]=[N-] | 32.4
10 | Cc1nc(N)c(Cc2ccc(Cl)cc2Cl)c(N)n1 | 105
11 | Oc1c(CN2CCc3ccccc3C2)cc(Cl)c2cccnc12 | 22
12 | CCn1cc(C(=O)O)c(=O)c2cc(F)c(N3CCN(C(=S)NC(=O)c4ccc(OC)cc4)CC3)cc21 | 11.3
13 | Cc1cccc(Nc2c3c(nc4ccccc24)CCC3)c1 | 106
14 | Clc1ccc(OCCCNCc2ccccc2)c(Br)c1 | 68.7
15 | CN1CCN(c2c(F)cc3c(=O)c(C(=O)O)cn4c3c2OCN4C)CC1 | 0.26
16 | c1cnc2c(c1)ccc1cccnc12 | 39.5
17 | N=C(N)SCc1cn(-c2ccccc2)nc1-c1ccc(Br)cc1 | 30.5
18 | COc1ccc(C(=O)Cn2nc(CNc3ccc(Br)cc3)[n+]3c2CCCCC3)cc1 | 81.7
19 | NC(N)=NN=C1CCCCCCCCCCC1 | 100
20 | CCCc1cnc(NCCNCC(O)COc2ccc(Cl)c(Cl)c2)nc1 (centres undefined) | 54.2
21 | Nc1cc(Cl)c2nonc2c1[N+](=O)[O-] | 57.6
22 | COc1ccc(OCc2n(CC(=O)OC3CC(C)CCC3C(C)C)c3ccccc3[n+]2C)cc1 (centres undefined) | 74.9
23 | O=[N+]([O-])c1cc(CN2CCCC2)c2cccnc2c1O | 71.5
24 | COc1c(F)c(F)cc2c(=O)c(C(=O)O)cn(C3CC3)c12 | 37.5
25 | CCn1cc(C(=O)O)c(=O)c2cc(F)c(N3CCN(C(=O)Nc4ccccc4)CC3)cc21 | 32.1
26 | CCCCCCCCCCOC(=O)Cn1c(COc2ccccc2)[n+](C)c2ccccc21 | 17.8
27 | COc1c(N2CCN(C(=S)NC3CC4CCC3C4)C(C)C2)c(F)cc2c(=O)c(C(=O)O)cn(C3CC3)c12 (centres undefined) | 22.2

Row | Structure (SMILES) | IC50 [µM]
28 | CCCCCc1ccc(OCCC[n+]2ccccc2)c(CCCCC)c1 | 83.2
29 | COc1cc([N+](=O)[O-])cc(/C=N\NC(=O)C2COc3ccccc3O2)c1O (centres undefined) | 129
30 | CC(C)(C)CC(C)(C)c1ccc(OCCOCC[N+](C)(C)Cc2ccccc2)cc1 | 35.9
31 | O=[N+]([O-])c1cc(O)c2ncccc2c1 | 27.9
32 | CCCCCCCCCC[n+]1cccc2c3ccccc3ccc21 | 23.1
33 | CCn1cc(C(=O)O)c(=O)c2cc(F)c(N3CCN(S(=O)(=O)c4ccc(NC(C)=O)cc4)CC3)cc21 | 135
34 | CC1CCC(C(C)C)C(OC(=O)Cn2c(COc3ccccc3)[n+](C)c3ccccc32)C1 (centres undefined) | 72.3
35 | Cc1scc(C(=O)N/N=C/c2ccc([N+](=O)[O-])o2)c1C | 110
36 | CN1CCN(C(c2ccc(Br)cc2)c2cc(Cl)c3cccnc3c2O)CC1 (centres undefined) | 30.4
37 | CN(C)c1ccc(O)c2c1CC1CC3[C@@H](N(C)C)C(=O)C(C(N)=O)=C(O)[C@]3(O)C(=O)C1=C2O (some centres undefined) | 9.56
38 | Cc1onc(-c2ccccc2)c1C(=O)NC(=S)NNC(=O)c1ccc(O)cc1O | 111
39 | CCCCCCCCCCCCCCCC[N+](C)(C)CC | 24.4
40 | CCCCCOc1ccc(CSC(=N)N)cc1[N+](=O)[O-] | 82.7
41 | Cc1nnc(N/N=C/c2ccccn2)[nH]c1=O | 42
42 | Cc1ccc(C)c(/C=C/C(=O)c2ccccc(=O)c2O)c1 | 89.4
43 | Oc1c(Br)cc(Br)cc1C=NCc1ccccc1 | 102
44 | CC(C(=O)NC1C=CS(=O)(=O)C1)N1C(=O)/C(=C/c2ccc(Cl)cc2)SC1=S (centres undefined) | 72.2
45 | COC(=O)C1C(O)C(C)C(O)C(C)(O)/C=C\C=C(/C)C(=O)Nc2c(C)c(OC(C)=O)c3c(c2O)C(=O)C(C)=C2OCOC(=C23)/C(C)=C/C(C)(O)C(O)C(C)C1O (centres undefined) | 17.2
46 | CN1CCN(CCCN2c3ccccc3Sc3ccc(Cl)cc32)CC1 | 71.2
47 | CCC(C)N1CCC2(CC1)N=c1c(c3c4c5c(C)c(O)c3c(O)c1=NC(=O)C(C)=CC=C[C@H](C)[C@H](O)[C@@H](C)[C@@H](O)[C@@H](C)[C@H](OC(C)=O)[C@H](C)[C@@H](OC)C=CO[C@@](C)(O5)C4=O)N2 (some centres undefined) | 2.72
48 | C=CC1=C(C(=O)O)N2C(=O)[C@@H](NC(=O)/C(=N/OCC(=O)O)c3csc(N)n3)[C@H]2SC1 | 22.4
49 | Clc1c(OCCCn2ccnc2)ccc2ccccc12 | 93.3
50 | CCCNC1=C(C)C(=O)C2=C(C1=O)C(COC(N)=O)[C@]1(OC)C3NC3CN21 (some centres undefined) | 23.8
51 | O=C(N/N=C/c1cc(Cl)ccc1O)c1cccnc1 | 49.3
52 | CCn1cc(C(=O)O)c(=O)c2cc(F)c(N3CCN(C(=S)Nc4ccc(OC)cc4)CC3)cc21 | 6.05
53 | O=C(Nc1ccccc1)Nc1ncc([N+](=O)[O-])s1 | 40.3
54 | NCCc1c(-c2ccccc2)n(-c2ccccc2)c2ccccc12 | 65.9
